In patent US20100041710A1, “PENETRATION ENHANCER FOR INSECTICIDES” (priority 2006, published 2010):
Read-outs that look alike come from different tables or passages of the source.

What was measured:
[1] = Procedure: In this test, the penetration of active substances through enzymatically isolated cuticles of apple tree leaves was measured. The cuticles represent all green plant parts, such as leaf blade, petiole, stalk, trunk, hypocotyl and many fruits.
Leaves which were cut off in the stage of full development of apple trees of the Golden Delicious variety were used. The isolation of the cuticles was effected in a manner such that • first, leaf disks marked on the underside with dye and punched out were filled by means of vacuum infiltration with a pectinase solution (0.2 to 2% strength by weight) buffered to a pH between 3 and 4, • sodium azide was then added and • the leaf disks thus treated were allowed to stand until disintegration of the original leaf structure and detachment of the noncellular cuticle.
Thereafter, only those cuticles of the upper sides of the leaves which were free of stomata and hairs were further used. They were washed several times alternately with water and a buffer solution at pH 7. The cleaned cuticles obtained were finally drawn onto small Teflon plates and smoothed and dried with a gentle air jet.
In the next step, the cuticle membranes thus obtained were placed in stainless steel diffusion cells (=transport chambers) for membrane transport investigations. For this purpose, the cuticles were placed by means of forceps centrally on the silicone grease-coated edges of the diffusion cells and closed with a likewise greased ring. The arrangement was chosen so that the morphological outside of the cuticles faced outward, i.e. toward the air, while the original inside faced the interior of the diffusion cell. The diffusion cells were filled with water or with a mixture of water and solvent.
For determining the penetration, in each case 10 μl of a spray liquor of the composition mentioned in the examples were applied to the outside of a cuticle.
In each case the solvents listed below in the table (tap water or a mixture with 20% by weight of acetone/80% by weight of tap water) were used in the spray liquors.
After the application of the spray liquors, in each case the solvent was allowed to evaporate, and in each case the chambers were then turned around and placed in thermostated trays, air having a defined temperature and atmospheric humidity being blown onto the outside of the cuticle. The incipient penetration therefore took place at a relative humidity of 60% and a set temperature of 20 or 25° C. The active substance penetration was measured with radioactively marked active substance.

crop plant = experiment: Crop plant tolerance tests; conditions: compared with other alkyl ester additives
[2] = Table 3, 0.1 g/l of imidacloprid in tap water, apple leaf cuticles, 20-25° C., rel. humidity 56-60%, mean of 10 repetitions
[3] = Table 2, 0.3 g/l of active substance, tap water (thiacloprid) or acetone/tap water 20/80% by weight (spirotetramat), 20-25° C., rel. humidity 56-60%, mean of 4-8 repetitions
[4] = Table 1, 0.18 g/l of thiacloprid in tap water, apple leaf cuticles, 20° C., rel. humidity 60%, mean of 4-8 repetitions

In the case of `CCCCOCCOP(=O)(OCCOCCCC)OCCOCCCC` [TBEP, tributoxyethyl phosphate], the “Increase in uptake of active substances compared with prior-art penetration enhancers” value ([1]; summary of table 3 (imidacloprid), versus TBP and TPP) is reported as “advantageously higher increase in uptake of active substances than the penetration enhancers of the prior art” and the Crop plant tolerance (crop plant) is reported as “more tolerant than other alkyl ester additives”.

In the case of `O=[N+]([O-])NC1=NCCN1Cc1ccc(Cl)nc1` [imidacloprid], the “% Penetration after 3 h” value [1, 2] is reported as 0.3% and the “% Penetration after 24 h” value [1, 2] is reported as 0.5%.

For `CCOC(=O)OC1=C(c2cc(C)ccc2C)C(=O)N[C@]12CC[C@@H](OC)CC2` [spirotetramat, cis-3-(2,5-dimethylphenyl)-8-methoxy-2-oxo-1-azaspiro[4.5]dec-3-en-4-yl ethyl carbonate], the “% Penetration after 3 h” value [1, 3] was 0% and the “% Penetration after 48 h” value [1, 3] was 0.3%.

In the case of `N#C/N=C1\SCCN1Cc1ccc(Cl)nc1` [thiacloprid], the “% Penetration after 3 h” value [1, 4] is reported as 0.1%, the “% Penetration after 24 h” value [1, 4] is reported as 0.8% and the “% Penetration after 3 h” value [1, 3] is reported as 0.1%. The “% Penetration after 48 h” value [1, 3] was 1.0%.
